This note sets out measurements from patent publication US6716603B2, “Nucleic acids encoding a chloride channel protein” (Genaera Corporation, priority 1998, dated 2004).

The test system of one assay is IL-9 induced eotaxin. Kind of assay: IL-9 induced eotaxin production in murine primary lung cultures (eotaxin ELISA). It counts as cell-based, mouse. The conditions noted are these: 100 μM channel blocker, FVB primary lung cultures with mIL-9, FIG. 18. From the text: IL-9 is known to induce eotaxin from lung epithelial cells (Dong, et.al., submitted for publication, Eur. J. Immunol.). In situ expression analysis of IL-9 transgenic mice found ICACC-1 expression to be predominant in airway epithelial cells. These epithelial cells also produce eotaxin, and eotaxin can be induced by IL-9 in these cells as well as primary lung cultures from a variety of different mouse strains. Because eotaxin and ICACC-1 are both induced by IL-9 in lung epithelial cells, it is possible that inhibiting ICACC-1 can inhibit eotaxin or other cytokines such as IL-4 or IL-13 (Doucet et al., J. Clin. Invest. 101:2129-2139, 1998.) that induce eotaxin production in lung epithelial cells. To test this hypothesis, we employed a murine primary lung assays, where lung cells were harvested from FVB/NJ mice as described in Example 5A and processed for in vitro analysis as described in Example 6 for human primary lung culture. Cells were incubated with or without 20 ng/ml recombinant mIL-9 for 48 hours. After 48 hours, conditioned supernatant was collected and analyzed for murine eotaxin production using an eotaxin ELISA kit (R&D Systems). Recombinant murine eotaxin was used to generate a standard curve. […] A culture derived from IL-9 transgenic mouse lung (TG5 lane) was used as a positive control. […]
For orientation: In an ELISA, binding on a coated surface is turned into a signal by an enzyme label.

The next assay relates to ICACC-1. Kind of assay: ICACC-1 RNA expression in lung after intratracheal IL-9 (RT-PCR). It counts as in vivo, mouse. As to conditions: C57B6 mice, 50 μl of 0.1 mg/ml IL-9 intratracheal daily for ten days, FIG. 8. The method, then:
Message was analyzed by PCR as described (Nicolaides et al., 1995) and via Northern blot. Primers used to generate murine ICACC-1 message were; sense 5′-[…]-3′ (SEQ ID NO:7) (nucleotides 689-712) and antisense 5′-[…]-3′ (SEQ ID NO:8) (nucleotides 1041-1064) which produce a gene product of 376 bp. DHFR was assayed as an internal control to measure for cDNA integrity using primers previously described (Nicolaides et al., 1991). Amplification conditions used were 95° C. for 30 seconds, 58° C. for 1.5 minutes and 72° C. for 1.5 minutes for 35 cycles. For Northern blot analysis, total RNA derived from Tg5 or FVB lungs was electrophoresed on 1.5% formaldehyde gels, transferred to nylon membranes and probed with a DNA fragment comprising the murine ICACC-1 cDNA.
To confirm that the expression of IL-9 was critically related to the expression of ICACC-1 and to control for genetic background specifically, recombinant murine IL-9 was introduced into the lung of murine strain C57B6. Recombinant IL-9 was instilled into the trachea of anesthetized mice by addition of 50 μl of a 0.1 mg/ml IL-9 solution or vehicle alone (0.1% bovine serum albumin) daily for ten days. […]
Expression of ICACC-1 RNA was measured as described in Example 3.

In the assay with IL-9 induced eotaxin, `O=S(=O)(O)c1cc(N=C=S)ccc1C=Cc1ccc(N=C=S)cc1S(=O)(=O)O` [DIDS] displayed an eotaxin production inhibited of 33%.

Turning to `CC(=O)Nc1ccc(C=Cc2ccc(N=C=S)cc2S(=O)(=O)O)c(S(=O)(=O)O)c1` [SITS], the eotaxin production inhibited in the assay on IL-9 induced eotaxin is on record as 41%.

B1: mIL-9: recombinant murine IL-9 (protein, UniProt P15247 19-144, looked up)
Interleukin-9: QRCSTTWGIRDTNYLIENLKDDPPSKCSCSGNVTSCLCLSVPTDDCTTPCYREGLLQLTNATQKSRLLPVFHRVKRIVEVLKNITCPSFSCEKPCNQTMAGNTLSFLKSLLGTFQKTEMQRQKSRP
Take B1: the “ICACC-1 RNA expression in lung (RT-PCR)” value with ICACC-1 is “expression increased”.
